Read-outs that look alike come from different tables or passages of the source.
Columns and labels:
H1299 p53 Y220C = assay: Cell Proliferation Assay (CellTiter-Glo, CTG), H1299 p53 Y220C (NClH1299-inducible p53 Y220C); type: cell-based; conditions: Homo sapiens, NCI-H1299, 120 h, 5 days
How it was run: (§1)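 NClH1299 lines stably transduced with Tet-inducible p53 Y220C or R273H, plus NUGC3, were treated with compound for 5 days at 250-500 cells/well. IC50 derived from CellTiter-Glo luminescent signal after 10 min room-temperature incubation.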

p53 Y220C = p53 Y220C (Homo sapiens, UniProt P04637, Y220C); assay: Luciferase Reporter Assay (Luc), p53 response element, NClH1299 cells with inducible p53 Y220C; type: cell-based; conditions: 6 hour; for AC50: read-out: Luc P53 Y220C AC50
How it was run: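 24 h dox pre-induction (0.5 ug/mL), then 6 h compound; One-Glo luminescent read.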

NUGC3 p53 Y220C = assay: Cell Proliferation Assay (CellTiter-Glo, CTG), NUGC3 p53 Y220C; type: cell-based; conditions: Homo sapiens, NUGC-3, 120 h, 5 days
How it was run: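 Tet-One inducible p53 Y220C or R273H constructs were stably introduced into NCI-H1299 by lentiviral transduction; NUGC3 was used as is. Cells (250-500 per well) were exposed to compound for 5 days, then CellTiter-Glo was added for 10 min at room temperature and IC50 was calculated from luminescence.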

H1299 p53 R273H = assay: Cell Proliferation Assay (CellTiter-Glo, CTG), H1299 p53 R273H (NClH1299-inducible p53 R273H); type: cell-based; conditions: Homo sapiens, NCI-H1299, 120 h, 5 days
How it was run: as §1

[1] = target: T1, p53 Y220C mutant protein (amino acid residues 94-293) (Homo sapiens, UniProt P04637, Y220C); assay: Surface Plasmon Resonance (SPR) assay, Kd_kinetic; type: binding; conditions: SPR, p53 Y220C, read-out: SPR P53 Y220C KD kinetic
T1 construct: p53 Y220C mutant protein (amino acid residues 94-293)
How it was run: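 Biacore 8K SPR; 16 or 20 °C; Tris 50 mM pH 7.5, NaCl 100 mM, DTT 1 mM, Brij35 0.01%, Tween-20 0.05%, DMSO 1%. Kd_kinetic by 1:1 fit.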

[2] = NClH1299-inducible p53 Y220C cells
[3] = AC50, NClH1299 cells with inducible p53 Y220C
[4] = Emax, NClH1299 cells with inducible p53 Y220C, 10 uM tool compound as positive control
[5] = NClH1299-inducible p53 R273H cells
[6] = NClH1299-inducible p53 Y220C cells, CellTiter-Glo
[7] = AC50, luciferase reporter, NClH1299 inducible p53 Y220C
[8] = Emax, luciferase reporter, NClH1299 inducible p53 Y220C
[9] = NClH1299-inducible p53 R273H cells, CellTiter-Glo

T1 sequence (P04637 94-293, stated change not applied): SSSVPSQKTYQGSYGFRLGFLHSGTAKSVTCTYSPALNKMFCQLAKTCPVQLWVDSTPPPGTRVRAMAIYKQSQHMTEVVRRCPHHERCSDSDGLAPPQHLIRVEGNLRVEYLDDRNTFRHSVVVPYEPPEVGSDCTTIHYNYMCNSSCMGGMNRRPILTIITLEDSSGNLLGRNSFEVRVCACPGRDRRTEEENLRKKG

SMILES	IC50 (H1299 p53 Y220C; [2]) [nM]	AC50 (p53 Y220C; [3]) [nM]	Emax (p53 Y220C; [4]) [%]	IC50 (NUGC3 p53 Y220C; NUGC3 cells) [nM]	IC50 (H1299 p53 R273H; [5]) [nM]	Kd [1] [nM]	IC50 (H1299 p53 Y220C; [6]) [nM]	AC50 (p53 Y220C; [7]) [nM]	Emax (p53 Y220C; [8]) [%]	IC50 (NUGC3 p53 Y220C; NUGC3 cells, CellTiter-Glo) [nM]	IC50 (H1299 p53 R273H; [9]) [nM]	IC50 (H1299 p53 Y220C; CellTiter-Glo, H1299 p53 Y220C) [nM]	Emax (p53 Y220C; luciferase reporter, NClH1299 inducible p53 Y220C, 10 uM tool compound as positive control) [%]	AC50 (p53 Y220C; luciferase reporter, NClH1299 inducible p53 Y220C) [nM]	IC50 (NUGC3 p53 Y220C; CellTiter-Glo, NUGC3 p53 Y220C) [nM]	IC50 (H1299 p53 R273H; CellTiter-Glo, H1299 p53 R273H) [nM]	Kd ([1]; kinetic KD) [nM]
CNC(=O)c1ccc(NCC#Cc2cc3c(N[C@@H]4CCN(C)C[C@@H]4F)cccn3c2SC(F)(F)F)c(O)c1 [Example 469, 4-{[3-(8-{[(3S,4R)-3-fluoro-1-methylpiperidin-4-yl]amino}-3-[(trifluoromethyl)sulfanyl]indolizin-2-yl)prop-2-yn-1-yl]amino}-3-hydroxy-N-methylbenzamide]	< 750	< 750	> 90	< 750	5000 to 8000	< 10											
CNC(=O)c1ccc(NCC#Cc2nn3c(N[C@@H]4CCNC[C@@H]4F)cccc3c2SC(F)(F)F)c(OC)c1 [Example 272]						< 10	< 750	< 750	80 to 90	750 to 1500	5000 to 8000						
COc1cc([S@@+](C)[O-])ccc1NCC#Cc1cc2c(N[C@@H]3CCN(C)C[C@@H]3F)cccn2c1SC(F)(F)F [Example 423]						< 10	< 750	< 750	> 90	< 750	8000 to 10000						
COc1cc(S(C)(=O)=O)ccc1NCC#Cc1nn2c(N[C@@H]3CCN(C)C[C@@H]3F)cccc2c1SC(F)(F)F [Example 363]						< 10	< 750	< 750	80 to 90	< 750	≥ 10000						
CNC(=O)c1ccc(NCC#Cc2cc3c(N[C@@H]4CCN(C)C[C@@H]4F)cccn3c2SC(F)(F)F)c(Cl)c1 [Example 466, 3-chloro-4-{[3-(8-{[(3S,4R)-3-fluoro-1-methylpiperidin-4-yl]amino}-3-[(trifluoromethyl)sulfanyl]indolizin-2-yl)prop-2-yn-1-yl]amino}-N-methylbenzamide]	< 750	< 750	80 to 90	< 750	≥ 10000	< 10											
CNC(=O)c1ccc(NCC#Cc2cc3c(N[C@@H]4CCNC[C@@H]4F)cccn3c2SC(F)(F)F)cc1 [Example 492, 4-{[3-(8-{[(3S,4R)-3-fluoropiperidin-4-yl]amino}-3-[(trifluoromethyl)sulfanyl]indolizin-2-yl)prop-2-yn-1-yl]amino}-N-methylbenzamide]	< 750	< 750	> 90	< 750	5000 to 8000	< 10											
COc1cc(S(C)(=O)=O)ccc1NCC#Cc1cc2c(N[C@@H]3CCNC[C@@H]3F)cccn2c1SC(F)(F)F [Example 370]						< 10	< 750	< 750	> 90	< 750	5000 to 8000						
CN1CC[C@@H](Nc2cccn3c(SC(F)(F)F)c(C#CCNc4ccc(C(=O)NC[C@@H]5CCO5)cc4)cc23)[C@@H](F)C1 [Example 453]						< 10	< 750	< 750	> 90	< 750	≥ 10000						
COc1cc(C(=O)O)ccc1NCC#Cc1cc2c(N[C@@H]3CCN(C)C[C@@H]3F)cccn2c1SC(F)(F)F [Example 451]						< 10	< 750	< 750	> 90	< 750	≥ 10000						
CC(C)(O)CNC(O)c1ccc(NCC#Cc2cc3c(N[C@@H]4CCNC[C@@H]4F)cccn3c2SC(F)(F)F)cc1 (stereo partly drawn) [Example 372]						< 10	< 750	< 750	> 90	< 750	8000 to 10000						
COc1cc(C(=O)NC[C@@H](O)CO)ccc1NCC#Cc1cc2c(N[C@@H]3CCN(C)C[C@@H]3F)cccn2c1SC(F)(F)F [Example 421]						< 10	< 750	< 750	> 90	< 750	≥ 10000						
CNC(=O)c1ccc(OC)c(NCC#Cc2nn3c(N[C@@H]4CCN(C)C[C@@H]4F)ccnc3c2SC(F)(F)F)c1 [Example 216, 3-{[3-(7-{[(3S,4R)-3-fluoro-1-methylpiperidin-4-yl]amino}-3-[(trifluoromethyl)sulfanyl]pyrazolo[1,5-a]pyrimidin-2-yl)prop-2-yn-1-yl]amino}-4-methoxy-N-methylbenzamide]												1500 to 3000	< 70	> 3000	1500 to 3000	< 5000	10 to 100

From US20260374766A1, “METHODS FOR TREATING CANCER” (Antares Therapeutics, Inc., priority 2022, published 2026)
